In US20260248788A1, “NEW COMPOUNDS AND TREATMENT OF RENAL CELL CARCINOMA” (TRUSTLIFE THERAPEUTICS INC., priority 2023, published 2026):
Entries after “also recorded” stand apart in the source; their conditions may differ. *1 amine or outer side, *2 acyl side, *3 side chain or, on linkers, in order; H or OH if unused. Where a SMILES comes first, the peptide text is derived from it. Bridges are numbered along the chain shown (N, C = ends). Roman numbers before positions name the chains, in order. [ ]: non-standard residue; d: D form. Actinocin(9to1) = Cc1c2oc3c(C)ccc(C(=O)[*:1])c3nc-2c(C(=O)[*:2])c(N)c1=O; NMeV = CN[C@H](C(=O)O)C(C)C; Sar = CNCC(=O)O

Assays:
Format in all cases: cell-based, human
[1] = tested on: RRM2; assay: Western blot of RRM2 protein level in drug-treated Caki-1; conditions: Caki-1, 24 h; NVP-TAE684 3 nM, MK-0752 5 nM, withaferin-a 4 μM, actinomycin-d 0.3 nM; vs DMSO
Description: (§1) Cell culture 1: Human clear cell renal cell carcinoma (ccRCC) cell line Caki-1 was obtained from the Karolinska Institute of Environmental Medicine, Stockholm, Sweden, derived from a ccRCC patient. The cells were cultured in RPMI 1640 medium with 10% fetal bovine serum (FBS) and 1% penicillin/streptomycin. The cells were cultivated at 37° C. in a humidified incubator with 5% CO2.
(§2) TG-101209, NVP-TAE684, MK-0752, actinomycin-d, and panobinostat were purchased from Selleckchem (S2692, S1108, S2660, S8964, S1030, Selleckchem, Houston, TX, USA), and withaferin-a was purchased from Sigma (W4394, Sigma-Aldrich, Saint Louis, MO, USA). These drugs were dissolved in DMSO. The cells (from cell culture 1) were seeded in a 96-well plate at 20×10^3 cells per well. After seeding for 24 h, the cells were treated for 24 h with the target drugs: TG-101209 (6 nM), NVP-TAE684 (3 nM), MK-0752 (5 nM), withaferin-a (4 μM), actinomycin-d (0.3 nM), and panobinostat (5 nM). The cells in the negative control group were only treated by DMSO for one day.
The cells were washed with phosphate-buffered saline (PBS) and lysed with CelLytic M (C2978, Sigma-Aldrich, Saint Louis, MO, USA) lysis buffer containing protease inhibitors. The lysates were centrifuged at 12 000 rpm for 5 min, and the supernatant was collected. The proteins were separated by Mini-PROTEAN® TGX™ Precast Gels (BioRad, Berkeley, CA, USA) and transferred to a Trans-Blot Turbo Mini 0.2 μm PVDF Transfer Packs membrane (BioRad, Berkeley, CA, USA) by using Trans-Blot® Turbo™ Transfer System (Bio-Rad, Berkeley, CA, USA). The antibodies for BUB1B (HPA008419), RRM2 (HPA056994), CEP55 (HPA023430), ASF1B (HPA069385), CCNB2 (HPA008873), and GAPDH (sc47724, Santa Cruz Biotechnology, Inc.) were used for primary immunoblotting. All the antibodies were diluted at 1:10000 concentration. The membranes were incubated in primary antibody solution overnight at 4° C. with gentle rocking. […] The protein bands were detected with ImageQuanat™ LAS 500 (29-0050-63, GE) automatic exposure procedure or 6 min exposure.

[2] = tested on: Caki-1; assay: Cell Counting Kit-8 (CCK-8) cell viability assay; conditions: Caki-1, 24 h; TG-101209 6 nM, NVP-TAE684 3 nM, MK-0752 5 nM, withaferin-a 4 μM, panobinostat 5 nM; vs DMSO
Description: Cell culture 1: Human clear cell renal cell carcinoma (ccRCC) cell line Caki-1 was obtained from the Karolinska Institute of Environmental Medicine, Stockholm, Sweden, derived from a ccRCC patient. The cells were cultured in RPMI 1640 medium with 10% fetal bovine serum (FBS) and 1% penicillin/streptomycin. The cells were cultivated at 37° C. in a humidified incubator with 5% CO2. TG-101209, NVP-TAE684, MK-0752, actinomycin-d, and panobinostat were purchased from Selleckchem ([…], […], […], […], […], Selleckchem, Houston, TX, USA), and withaferin-a was purchased from Sigma (W4394, Sigma-Aldrich, Saint Louis, MO, USA). These drugs were dissolved in DMSO. The cells (from cell culture 1) were seeded in a 96-well plate at 20×10^3 cells per well. After seeding for 24 h, the cells were treated for 24 h with the target drugs: TG-101209 (6 nM), NVP-TAE684 (3 nM), MK-0752 (5 nM), withaferin-a (4 μM), actinomycin-d (0.3 nM), and panobinostat (5 nM). The cells in the negative control group were only treated by DMSO for one day. Cell proliferation was detected by Cell Counting Kit-8 (CCK-8) assay. The 10 μl of CCK-8 reagent (1:10) was added to each well of 96-well plate with siRNA transfected cells or drug-treated cells by manufacturer's instruction. The 96-well plate was incubated at 37° C. for 2 hours and then measured absorbance at 450 nm using a microplate reader (Hidex Sense Beta Plus).

[3] = tested on: BUB1B; assay: Western blot of BUB1B protein level in drug-treated Caki-1; conditions: Caki-1, TG-101209 6 nM, 24 h, vs DMSO negative control
Description: as §1, §2
The cells were washed with phosphate-buffered saline (PBS) and lysed with CelLytic M (C2978, Sigma-Aldrich, Saint Louis, MO, USA) lysis buffer containing protease inhibitors. […] The protein bands were detected with ImageQuanat™ LAS 500 (29-0050-63, GE) automatic exposure procedure or 6 min exposure.

[4] = tested on: BUB1B; assay: Western blot of BUB1B in Caki-1 cells treated with TG-101209 derivatives; conditions: Caki-1 cells, 5 μM of target drug, 1 day (FIG. 41, 56)
Description: (§3) Cell culture 2: Caki-1 was purchased from CLS Cell Lines Service (Germany). The cells were maintained in McCoy's 5A (modified) medium (16600082, Thermo Fisher Scientific, USA) and supplemented with 10% fetal bovine serum (FBS, F7524, Sigma-Aldrich), 1% Penicillin/Streptomycin (P4333, Sigma-Aldrich).
The target drugs developed as alternatives to TG-101209, were dissolved in 0.1% DMSO (41639, Sigma-Aldrich). Caki-1 cells from cell culture 2 were seeded in a 6-well plate at 3×10^5 cells per well. […]
The cells were washed with PBS solution and then lysed with CelLytic M (C2978, Sigma-Aldrich) lysis buffer containing protease inhibitors (11836170001, Roche). The cell lysates were centrifuged at 12 000 rpm for 10 min and supernatants were collected. Protein Assay Dye Reagent (5000006, Bio-Rad) was used for the determination of protein concentration. The absorbance of the proteins was measured spectrophotometrically at 595 nm by a microplate reader (Hidex Sense Beta Plus). Protein electrophoresis was performed using Mini-PROTEAN® TGX™ Precast Gels (4561086, Bio-Rad) and then the separated proteins were transferred to a Trans-Blot Turbo Mini 0.2 μm PVDF Transfer Packs membrane (1704158, Bio-Rad) by using Trans-Blot® Turbo™ Transfer System (Bio-Rad). The membrane was blocked with 5% skim milk for 30 min at 4° C. with gentle rocking. After blocking, the membrane was treated with primary antibodies: Anti-BUB1B (HPA008419, Human Protein Atlas, Sweden) and Anti-Beta actin (ab8227, Abcam) as a loading control overnight at 4° C. on a rocking platform. After the treatment of primary antibodies, the membrane was washed three times with TBS-T buffer (A09-7500-100, Medicago). Then, Goat anti-Rabbit IgG-HRP (ab205718, Abcam) was treated as the secondary antibody for 30 min at 4° C. with gentle rocking.

[5] = tested on: Caki-1 cells; assay: MTT cell viability assay
Description: as §3
The cytotoxic effects of the TG-101209 and its alternatives on the Caki-1 cells were tested by MTT (Thiazolyl Blue Tetrazolium Bromide) method. 1.5×10^4 cells were seeded per well in a 96-well plate in 100 μL growth media. […] After the incubation period, 5 mg/ml MTT (M2128, Sigma-Aldrich) solution in PBS (10 μL) was added to each well. After 1 hour, the MTT solution and all media were removed from the wells. 100 μl of DMSO was added and mixed to dissolve the formazan crystals. Cell viability was analysed by measuring the absorbance of the dissolved formazan at a wavelength of 570 nm with a microplate reader (Hidex Sense Beta Plus).

[6] = tested on: Caki-1 cells; assay: LDH cytotoxicity assay; conditions: Caki-1, 10 nM-30 μM
Description: as §3
Lactate dehydrogenase (LDH) assay was performed with LDH Assay Kit (ab65393). […] 20 μl of media was analysed with LDH Assay Kit as per manufacturer's instruction.

SMILES | protein level of RRM2 (Western blot) [1] | cell viability (CCK-8) [2] | protein level of BUB1B (Western blot) [3] | expression levels of BUB1B (Western blot) [4] | change of IC50 values after 2 days compared to 1 day treatment ([5]; Caki-1 (FIG. 53-54)) | effect on cell viability (MTT) ([5]; Caki-1, 10 μM, 1 day, first batch) | IC50 ([5]; Caki-1, 1 day (FIG. 43), text: after treatment with 5 μM) | Ranking, Cell viability (%) ([5]; top five, MTT assay, 10 μM, 1 day, rank 1 = greatest reduction) | cytotoxic effect and dose dependence [6]
COc1cc(N2CCC(N3CCN(C)CC3)CC2)ccc1Nc1ncc(Cl)c(Nc2ccccc2S(=O)(=O)C(C)C)n1 [NVP-TAE684] | significantly suppressed | significantly reduced |  |  |  |  |  |  | 
Cc1cnc(Nc2ccc(N3CCN(C)CC3)cc2)nc1Nc1cccc(S(=O)(=O)NC(C)(C)C)c1 [TG-101209, reference compound] |  | significantly reduced | significantly decreased; also recorded: significantly reduced | significantly lower the expression levels of BUB1B | largest decrease | most profound effect | ~3000 nM | 5 | dose dependent toxicity
Cc1c2oc3c(C)ccc(C(=O)N[C@@H]4C(=O)N[C@H](C(C)C)C(=O)N5CCC[C@H]5C(=O)N(C)CC(=O)N(C)[C@@H](C(C)C)C(=O)O[C@@H]4C)c3nc-2c(C(=O)N[C@@H]2C(=O)N[C@H](C(C)C)C(=O)N3CCC[C@H]3C(=O)N(C)CC(=O)N(C)[C@@H](C(C)C)C(=O)O[C@@H]2C)c(N)c1=O [actinomycin-d] (I: T[dV]P[Sar][NMeV] / II: T[dV]P[Sar][NMeV]; ester I:1-I:C, II:1-II:C; linker I:N-II:N via Actinocin(9to1)) | does not work for inhibiting RRM2 |  |  |  |  |  |  |  | 
CC1=C(CO)C(=O)O[C@@H]([C@@H](C)[C@H]2CC[C@H]3[C@@H]4C[C@H]5O[C@]56[C@@H](O)C=CC(=O)[C@]6(C)[C@H]4CC[C@]23C)C1 [withaferin-a] | significantly suppressed | significantly reduced |  |  |  |  |  |  | 
